Results: patent US12091425B2 (AMGEN INC., priority 2016, dated 2024)

Tests used:
[1] = test system: OPM-2 human multiple myeloma cell line; test: Cell Viability Assay (OPM-2 10 FBS); format: cell-based; conditions: Homo sapiens, OPM-2, 16 h, OPM-2 cells, 16 h incubation, CellTiter-Glo
Procedure, shortened: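 OPM-2 myeloma cells, 3000/well in medium with 10% FBS, exposed to serially diluted compounds for 16 h at 37° C./5% CO2. Viability read by CellTiter-Glo luminescence; IC50 from 4-parameter logistic fit.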

[2] = target: T1, Mcl-1/Bim interaction, recombinant human Mcl-1 (171-327) (Homo sapiens, UniProt Q07820); test: Cell free Mcl-1: Bim Affinity Assay (Mcl-1 HTRF); format: binding; conditions: TR-FRET, 0.1 nM Mcl-1 (171-327), 0.05 nM biotin-Bim (51-76)
T1 construct: made in house
T1 sequence (Q07820 171-327): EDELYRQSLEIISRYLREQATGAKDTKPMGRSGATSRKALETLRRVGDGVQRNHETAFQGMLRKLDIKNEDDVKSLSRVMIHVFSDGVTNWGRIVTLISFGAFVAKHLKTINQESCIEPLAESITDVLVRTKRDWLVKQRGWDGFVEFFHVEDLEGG
Procedure, shortened: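 Biotin-Bim(51-76) peptide, TR-FRET readout, overnight incubation; IC50 from duplicate competition curves, 4-parameter fit.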

| Compound | IC50 [1] | IC50 [2] |
| --- | --- | --- |
| CC[C@@H]1CC/C=C/[C@H](OCCC(=O)N2CCOCC2)[C@@H]2CC[C@H]2CN2C[C@@]3(CCCc4cc(Cl)ccc43)COc3ccc(cc32)C(=O)NS1(=O)=O [Example 1011, (1S,3′R,6′R,7′S,8′E,12′R)-6-chloro-12′-ethyl-7′-(3-(4-morpholinyl)-3-oxopropoxy)-3,4-dihydro-2H,15′H-spiro[naphthalene-1,22′-[20]oxa[13]thia[1,14]diazatetracyclo[14.7.2.0^3,6.0^19,24]pentacosa [8,16,18,24]tetraen]-15′-one 13′,13′-dioxide] | 524 nM | 0.347 nM |
| C[C@@H]1C[C@@H](C)/C=C/[C@H](O)[C@@H]2CC[C@H]2CN2C[C@@]3(CCCc4cc(Cl)ccc43)COc3ccc(cc32)C(=O)NS1(=O)=O [Example 1014, (1S,3′R,6′R,7′S,8′E,10′R,12′R)-6-chloro-7′-hydroxy-10′,12′-dimethyl-3,4-dihydro-2H,15′H-spiro[naphthalene-1,22′-[20]oxa[13]thia[1,14]diazatetracyclo[14.7.2.0^3,6.0^19,24]pentacosa [8,16,18,24]tetraen]-15′-one 13′,13′-dioxide] | 329 nM | 0.267 nM |
| C[C@@H]1/C=C/[C@H](O)[C@@H]2CC[C@H]2CN2C[C@@]3(CCCc4cc(Cl)ccc43)COc3ccc(cc32)C(=O)NS(=O)(=O)[C@H](C)C1 [Example 1015, (1S,3′R,6′R,7′S,8′E,10′S,12′R)-6-chloro-7′-hydroxy-10′,12′-dimethyl-3,4-dihydro-2H,15′H-spiro[naphthalene-1,22′-[20]oxa[13]thia[1,14]diazatetracyclo[14.7.2.0^3,6.0^19,24]pentacosa [8,16,18,24]tetraen]-15′-one 13′,13′-dioxide] | 235 nM | 0.275 nM |
| CO[C@H]1/C=C/[C@H](C)C[C@@H](C)S(=O)(=O)NC(=O)c2ccc3c(c2)N(C[C@@H]2CC[C@H]21)C[C@@]1(CCCc2cc(Cl)ccc21)CO3 [Example 1016, (1S,3′R,6′R,7′S,8′E,10′R,12′R)-6-chloro-7′-methoxy-10′,12′-dimethyl-3,4-dihydro-2H,15′H-spiro[naphthalene-1,22′-[20]oxa[13]thia[1,14]diazatetracyclo[14.7.2.0^3,6.0^19,24]pentacosa [8,16,18,24]tetraen]-15′-one 13′,13′-dioxide] | 291 nM | 0.483 nM |
| COCCO[C@H]1/C=C/[C@H](C)C[C@@H](C)S(=O)(=O)NC(=O)c2ccc3c(c2)N(C[C@@H]2CC[C@H]21)C[C@@]1(CCCc2cc(Cl)ccc21)CO3 [Example 1017, (1S,3′R,6′R,7′S,8′E,10′R,12′R)-6-chloro-7′-(2-methoxyethoxy)-10′,12′-dimethyl-3,4-dihydro-2H,15′H-spiro[naphthalene-1,22′-[20]oxa[13]thia[1,14]diazatetracyclo[14.7.2.0^3,6.0^19,24]pentacosa [8,16,18,24]tetraen]-15′-one 13′,13′-dioxide] | 310 nM | 0.339 nM |
| C[C@@H]1C[C@@H](C)/C=C/[C@H](OCCN2CCOCC2)[C@@H]2CC[C@H]2CN2C[C@@]3(CCCc4cc(Cl)ccc43)COc3ccc(cc32)C(=O)NS1(=O)=O [Example 1018, (1S,3′R,6′R,7′S,8′E,10′R,12′R)-6-chloro-10′,12′-dimethyl-7′-(2-(4-morpholinyl)ethoxy)-3,4-dihydro-2H,15′H-spiro[naphthalene-1,22′-[20]oxa[13]thia[1,14]diazatetracyclo[14.7.2.0^3,6.0^19,24]pentacosa [8,16,18,24]tetraen]-15′-one 13′,13′-dioxide] | 285 nM | 0.356 nM |
| CO[C@H]1/C=C/[C@@H](C)C[C@@H](C)S(=O)(=O)NC(=O)c2ccc3c(c2)N(C[C@@H]2CC[C@H]21)C[C@@]1(CCCc2cc(Cl)ccc21)CO3 [Example 1019, (1S,3′R,6′R,7′S,8′E,10′S,12′R)-6-chloro-7′-methoxy-10′,12′-dimethyl-3,4-dihydro-2H,15′H-spiro[naphthalene-1,22′-[20]oxa[13]thia[1,14]diazatetracyclo[14.7.2.0^3,6.0^19,24]pentacosa [8,16,18,24]tetraen]-15′-one 13′,13′-dioxide] | 475 nM | 0.497 nM |
| COCCO[C@H]1/C=C/[C@@H](C)C[C@@H](C)S(=O)(=O)NC(=O)c2ccc3c(c2)N(C[C@@H]2CC[C@H]21)C[C@@]1(CCCc2cc(Cl)ccc21)CO3 [Example 1020, (1S,3′R,6′R,7′S,8′E,10′S,12′R)-6-chloro-7′-(2-methoxyethoxy)-10′,12′-dimethyl-3,4-dihydro-2H,15′H-spiro[naphthalene-1,22′-[20]oxa[13]thia[1,14]diazatetracyclo[14.7.2.0^3,6.0^19,24]pentacosa [8,16,18,24]tetraen]-15′-one 13′,13′-dioxide] | 759 nM | 1.05 nM |
| CC[C@@H]1C[C@@H](C)/C=C/[C@H](OCCN2CCOCC2)[C@@H]2CC[C@H]2CN2C[C@@]3(CCCc4cc(Cl)ccc43)COc3ccc(cc32)C(=O)NS1(=O)=O [Example 1026, (1S,3′R,6′R,7′S,8′E,10′R,12′R)-6-chloro-12′-ethyl-10′-methyl-7′-(2-(4-morpholinyl)ethoxy)-3,4-dihydro-2H,15′H-spiro[naphthalene-1,22′-[20]oxa[13]thia[1,14]diazatetracyclo[14.7.2.0^3,6.0^19,24]pentacosa [8,16,18,24]tetraen]-15′-one 13′,13′-dioxide] | 288 nM | 1.12 nM |
| C[C@@H]1[C@@H](C)S(=O)(=O)NC(=O)c2ccc3c(c2)N(C[C@@H]2CC[C@H]2[C@@H](O)CC[C@@H]1C)C[C@@]1(CCCc2cc(Cl)ccc21)CO3 [Example 1045, (1S,3′R,6′R,7′S,10′S,11′S,12′R)-6-chloro-7′-hydroxy-10′,11′,12′-trimethyl-3,4-dihydro-2H,15′H-spiro[naphthalene-1,22′-[20]oxa[13]thia[1,14]diazatetracyclo[14.7.2.0^3,6.0^19,24]pentacosa [16,18,24]trien]-15′-one 13′,13′-dioxide] | 1140 nM | 0.294 nM |
| C[C@H]1[C@H](C)CC[C@H](O)[C@@H]2CC[C@H]2CN2C[C@@]3(CCCc4cc(Cl)ccc43)COc3ccc(cc32)C(=O)NS(=O)(=O)[C@@H]1C [Example 1046, (1S,3′R,6′R,7′S,10′R,11′S,12′R)-6-chloro-7′-hydroxy-10′,11′,12′-trimethyl-3,4-dihydro-2H,15′H-spiro[naphthalene-1,22′-[20]oxa[13]thia[1,14]diazatetracyclo[14.7.2.0^3,6.0^19,24]pentacosa [16,18,24]trien]-15′-one 13′,13′-dioxide] | 2520 nM | 0.785 nM |
| CO[C@H]1/C=C/[C@H](C)[C@H](C)[C@@H](C)S(=O)(=O)NC(=O)c2ccc3c(c2)N(C[C@@H]2CC[C@H]21)C[C@@]1(CCCc2cc(Cl)ccc21)CO3 [Example 1047, (1S,3′R,6′R,7′S,8′E,10′S,11′S,12′R)-6-chloro-7′-methoxy-10′,11′,12′-trimethyl-3,4-dihydro-2H,15′H-spiro[naphthalene-1,22′-[20]oxa[13]thia[1,14]diazatetracyclo[14.7.2.0^3,6.0^19,24]pentacosa [8,16,18,24]tetraen]-15′-one 13′,13′-dioxide] | 300 nM | 0.424 nM |
